According to patent US20240016863A1, “LACTOBACILLUS JOHNSONII AND METHOD FOR INCREASING THE LEVEL OF UNSATURATION IN FATTY ACID USING LACTOBACILLUS JOHNSONII OR METABOLITES THEREOF” (TCI CO., LTD., priority 2022, published 2024):

Tested on: HepG2 cells
Experiment: Cholesterol metabolism test (cholesterol uptake, NBD cholesterol, flow cytometer)
Assay type: cell-based, Human
Details: U-18666A 1.25 μM, sample 0.25% (v/v)
Experimental: 1. Cell line: Human liver cells, purchased from ATCC (American Type Culture Collection), cell number: HB-8065, hereinafter referred to as HepG2 cells.
5. Cholesterol Uptake Cell-based Assay Kit: purchased from Cayman; product number: 600440. This cholesterol uptake cell-based assay kit included U-18666A and NBD cholesterol.
1. The HepG2 cells were inoculated into a 6-well culture plate containing 2 mL of cell medium in each well according to a density of 1×10^5 cells per well, and cultured at 37° C. for 24 h. The HepG2 cells were divided into three test groups, i.e., a Mock group, a control group and an experiment group, respectively. Each group underwent trial in triplicate.
2. […]
4. After rinsing, the cells of each group were processed according to the test process provided by the cholesterol uptake cell-based assay kit to obtain a test sample of each group; the parameters of the flow cytometer were set as excitation spectra and emission spectra of FITC, and then a green fluorescence signal of each group was detected by using the flow cytometer.
The relative cholesterol uptake in hepatocytes of all groups was calculated according to the following formula: relative cholesterol uptake in hepatocytes (%)=(green fluorescence signal of each group/green fluorescence signal of the Mock group)×100%.

CCN(CC)CCO[C@H]1CC[C@@]2(C)C(=CC[C@@H]3[C@@H]2CC[C@]2(C)C(=O)CC[C@@H]32)C1 [U-18666A]
relative cholesterol uptake in hepatocytes (HepG2, 20 μg/mL NBD cholesterol, 24-72 h, Mock group = 100%): 143.5%
relative cholesterol uptake in hepatocytes increased compared with the Mock group (HepG2): about 43.5%
